According to patent publication US10294202B2, “Pyrrolidinones as herbicides” (FMC Corporation, priority 2013, dated 2019):

Key:
[1] = system: velvetleaf; assay: Test E preemergence herbicide test; format: in vivo, Abutilon theophrasti; design: key: 0 = no effect, 100 = complete control
Procedure, shortened: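 Test chemicals, formulated in a surfactant-containing non-phytotoxic solvent blend, are applied preemergence to seeded silt loam soil. After 21 days in the greenhouse, response is scored visually relative to controls, where 100 means complete control and 0 means no effect.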

[2] = system: lambsquarters; assay: Test D pre-/postemergence herbicide test; format: in vivo, Chenopodium album; conditions: Postemergence, Lambsquarters, scale 0 to 100
Procedure, shortened: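 Visual 0–100 ratings (0 = no effect, 100 = complete control) versus controls, made 7 to 21 days after treatment in a controlled growth environment. Test chemicals in surfactant-containing non-phytotoxic solvent were applied preemergence to silt loam-sown seeds and postemergence to plants 2–18 cm tall.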

[3] = system: nightshade; assay: Test C pre-/postemergence herbicide test; format: in vivo, Solanum ptycanthum; conditions: Preemergence
Procedure, shortened: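 Plants grown and held in a greenhouse for 13 to 15 days post-spray, then rated 0–100 by visual comparison with controls. Pre treatments targeted seeds in loam and sand; post treatments targeted 1- to 4-leaf plants in peat-based potting medium.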

O=C1NCC(c2ccc(F)c(F)c2)C1C(=O)Nc1cccc(F)c1F (stereo not drawn) [Compound 17, N-(2,3-difluorophenyl)-4-(3,4-difluorophenyl)-2-oxo-3-pyrrolidinecarboxamide]
Plant response rating, Velvetleaf ([1]; 16 g ai/ha): 0 | Plant response rating, Velvetleaf ([1]; 31 g ai/ha): 0 | Plant response rating, Velvetleaf ([1]; 62 g ai/ha): 0 | Plant response rating, Velvetleaf ([1]; 125 g ai/ha): 0 | Plant response rating, Velvetleaf ([1]; 250 g ai/ha): 0 | Plant response rating ([2]; 16 g ai/ha): 0 | Plant response rating ([2]; 31 g ai/ha): 0 | Plant response rating ([2]; 62 g ai/ha): 0 | Plant response rating ([2]; 125 g ai/ha): 20 | Plant response rating ([2]; 250 g ai/ha): 40 | Plant response rating, Nightshade ([3]; 62 g ai/ha, scale 0 to 100): 20 | Plant response rating, Nightshade ([3]; 125 g ai/ha, scale 0 to 100 (0 no effect, 100 complete control)): 40
